This is an account of results in paper PMC9293070, “Bioisosteric Modification of To042: Synthesis and Evaluation of Promising Use‐Dependent Inhibitors of Voltage‐Gated Sodium Channels” (Chemmedchem, 2021).

Counter-ions that a name gives are not always drawn. Like-named read-outs stand apart in the source and are kept apart here.

Data set [1] in a line: Apparent permeability across Caco-2 monolayer (BA and AB). The data set is classed as in vitro ADME. The following applies: human, 120 min, HBSS pH 7.4; for Papp A→B at 120 min, 100 µM: Apical-to-Basolateral; for Papp B→A at 120 min, 100 µM: Basolateral-to-Apical. The procedure:
(§1) Permeability experiments. Details for permeability experiments. Preparation of Caco‐2 monolayer. This procedure has been previously reported by Colabufo et al.[65] Briefly, Caco‐2 cells were harvested with trypsin‐EDTA and seeded onto MultiScreen Caco‐2 assay system at a density of 10,000 cells per well. The culture medium was replaced every 48 h for the first 6 days and every 24 h thereafter. After 21 days in culture, the Caco‐2 monolayer was utilized for the permeability experiments. The Trans Epithelial Electrical Resistance (TEER) of the monolayers was measured daily before and after the experiment using an epithelial voltohmmeter (Millicell®‐ERS; Millipore, Billerica, MA). […] Drug transport experiment. […] Drugs were dissolved in Hanks’ balanced salt solution (HBSS, pH 7.4) and sterile filtered. After 21 days of cell growth, the medium was removed from filter wells and from the receiver plate. The wells were filled with 75 μL of fresh HBSS buffer and the receiver plate with 250 μL per well of the same buffer. This procedure was repeated twice, and the plates were incubated at 37 °C for 30 min. After incubation, the HBSS buffer was removed and drug solutions added to the filter well (75 μL). HBSS without the drug was added to the receiver plate (250 μL). The plates were incubated at 37 °C for 120 min. After incubation, samples were removed from the apical (filter well) and basolateral (receiver plate) sides of the monolayer and stored at −20 °C up to analysis. Compounds were lyophilized at −52 °C and 0.06 bars for 24 h and desalted by adding 500 μL of CH3CN (in order to remove phosphate salts coming from HBSS), then 500 μL of Ammonium Acetate (50 mM, pH 5) were added. The resulting solutions were analyzed by ESI‐MS in order to determine the concentration of drug in the samples. The concentration of tested compounds was measured using UV spectroscopy. The apparent permeability (P app), in units of nm per second, was calculated using the following equation: […]
(§2) where V A is the volume (in mL) in the acceptor well; Area is the surface area of the membrane (0.11 cm^2 of the well); time is the total transport time in seconds (7200 s); [drug]acceptor is the concentration of the drug measured by ESI‐MS analyses or UV spectroscopy; [drug]initial is the initial drug concentration (1 ⋅ 10^−4 M) in the apical or basolateral wells.
(Caco-2 monolayers are a common model of the intestinal barrier.)

The subject of a further data set is P-gp. The description is as above. The data set is classed as in vitro ADME. The following applies: human, pH 7.4; ratio of Papp BA to Papp AB. The procedure: as §1, §2
Data set [2] has as its target T1, hNav1.4 (Homo sapiens, UniProt P35499). Briefly: Patch-clamp block of hNav1.4 sodium currents in HEK293T cells. Particulars: for IC50: HEK293T cells, value ± standard error of the fit; for TB/PB (ratio IC50 tonic block/IC50 phasic block): use-dependence. Type of data set: cell-based. The procedure:
Patch clamp experiments. Exploratory compounds were tested on sodium currents recorded in HEK293T cells (human embryonic kidney cell line) permanently expressing the wild‐type human Nav1.4 sodium channel, as previously described.[14, 61] Whole‐cell sodium currents were recorded at room temperature (∼22 °C) using Axon hardware and software (Axon Instruments Inc., Union City, CA, USA). Bath solution contained (mM): 150 NaCl, 4 KCl, 2 CaCl2, 1 MgCl2, 5 HEPES and 5 glucose (pH 7.4). Pipette solution contained (mM): 120 CsF, 10 CsCl, 10 NaCl, 5 EGTA, and 5 HEPES (pH 7.2). Pipette resistance was […]. Stabilization of the whole‐cell configuration was allowed for 5 minutes before to record sodium currents elicited from a holding potential of −120 mV using 25 ms‐long test pulses at −30 mV applied every 10 or 0.1 sec (0.1 and 10 Hz frequencies). The patched cell was continuously perfused by control or drug‐supplemented bath solution. To limit errors due to rundown and voltage‐dependence shifts, no more than two drug concentrations were tested on each cell. The I DRUG/I CTRL ratio (mean±S.E.M. from at least 3 cells) was plotted against drug concentration.
The half‐maximum inhibitory concentration (IC50) and slope factor (nH) are given with the standard error of the fit.
Background: The patch-clamp technique gives a direct electrical read-out from membranes.

Data set [3] has as its target T1, hNav1.4. Particulars: cited from earlier work.
Data set [4] deals with HeLa cells. Briefly: Mitochondrial ROS production by DHR staining, flow cytometry. Type of data set: cell-based, human. Particulars: 50 μM, compared with 13 a. On the procedure: (§3) Cell culture. Cervical cancer cell lines (HeLa) were cultured in Dulbecco's modified eagle medium (DMEM) supplemented with 10 % fetal bovine serum (FBS), 1 % glutamine, and 1 % penicillin/streptomycin (all purchased from Euroclone, Italy) in a humidified incubator at 37 °C and 5 % CO2 and 95 % relative humidity.
(§4) Flow cytometry analysis. In order to detect ROS production after drugs treatment,[66, 67] cells at 3×10^5 cells were seeded in 6‐well plates in DMEM with 10 % FBS and cultured overnight. The following day, cells were washed twice with PBS and kept in DMEM without FBS for 2 h. […] Antibiotics were omitted during pharmacological compound assays. After incubation period, cells were washed twice with HBSS, and stained with 5 μM of 2′,7′‐dichorofluorescein (DCFA‐DA) and dihydrorhodamine (DHR) (Thermo Fischer Scientific, Italy) for 30 min in dark. After washing, cells were resuspended in HBSS and analyzed using an Attune Acoustic Focusing Cytometer (Thermo Fisher Scientific) equipped with a 488 nm laser. Thereafter, DCFA‐DA stained cells were co‐stained with 1 μg/mL of 7‐aminoactinomycin D (7‐AAD) (Thermo Fischer Scientific, Italy), incubated on ice for 45 min in dark in order to asses viable and non‐viable cells, and then flow cytometry analysis was carried out.
On the technique in general: A flow cytometer gives signals particle by particle.

Data set [5] concerns HeLa cells. Briefly: Cell viability by 7-AAD co-staining, flow cytometry. The data set is classed as cell-based, human. Particulars: 1 and 50 μM, 24 h. On the procedure: as §3, §4
Data set [6] deals with HeLa cells. In words: ROS production by DCF staining, flow cytometry. Type of data set: cell-based, human. On the procedure: as §3, §4
The mark [7] stands for this setting: 0.1 Hz stimulation, read-out: Tonic Block IC50 at 0.1 Hz.
Setting [8] is: 10 Hz stimulation, read-out: Phasic Block IC50 at 10 Hz.

T1 sequence (P35499 whole entry): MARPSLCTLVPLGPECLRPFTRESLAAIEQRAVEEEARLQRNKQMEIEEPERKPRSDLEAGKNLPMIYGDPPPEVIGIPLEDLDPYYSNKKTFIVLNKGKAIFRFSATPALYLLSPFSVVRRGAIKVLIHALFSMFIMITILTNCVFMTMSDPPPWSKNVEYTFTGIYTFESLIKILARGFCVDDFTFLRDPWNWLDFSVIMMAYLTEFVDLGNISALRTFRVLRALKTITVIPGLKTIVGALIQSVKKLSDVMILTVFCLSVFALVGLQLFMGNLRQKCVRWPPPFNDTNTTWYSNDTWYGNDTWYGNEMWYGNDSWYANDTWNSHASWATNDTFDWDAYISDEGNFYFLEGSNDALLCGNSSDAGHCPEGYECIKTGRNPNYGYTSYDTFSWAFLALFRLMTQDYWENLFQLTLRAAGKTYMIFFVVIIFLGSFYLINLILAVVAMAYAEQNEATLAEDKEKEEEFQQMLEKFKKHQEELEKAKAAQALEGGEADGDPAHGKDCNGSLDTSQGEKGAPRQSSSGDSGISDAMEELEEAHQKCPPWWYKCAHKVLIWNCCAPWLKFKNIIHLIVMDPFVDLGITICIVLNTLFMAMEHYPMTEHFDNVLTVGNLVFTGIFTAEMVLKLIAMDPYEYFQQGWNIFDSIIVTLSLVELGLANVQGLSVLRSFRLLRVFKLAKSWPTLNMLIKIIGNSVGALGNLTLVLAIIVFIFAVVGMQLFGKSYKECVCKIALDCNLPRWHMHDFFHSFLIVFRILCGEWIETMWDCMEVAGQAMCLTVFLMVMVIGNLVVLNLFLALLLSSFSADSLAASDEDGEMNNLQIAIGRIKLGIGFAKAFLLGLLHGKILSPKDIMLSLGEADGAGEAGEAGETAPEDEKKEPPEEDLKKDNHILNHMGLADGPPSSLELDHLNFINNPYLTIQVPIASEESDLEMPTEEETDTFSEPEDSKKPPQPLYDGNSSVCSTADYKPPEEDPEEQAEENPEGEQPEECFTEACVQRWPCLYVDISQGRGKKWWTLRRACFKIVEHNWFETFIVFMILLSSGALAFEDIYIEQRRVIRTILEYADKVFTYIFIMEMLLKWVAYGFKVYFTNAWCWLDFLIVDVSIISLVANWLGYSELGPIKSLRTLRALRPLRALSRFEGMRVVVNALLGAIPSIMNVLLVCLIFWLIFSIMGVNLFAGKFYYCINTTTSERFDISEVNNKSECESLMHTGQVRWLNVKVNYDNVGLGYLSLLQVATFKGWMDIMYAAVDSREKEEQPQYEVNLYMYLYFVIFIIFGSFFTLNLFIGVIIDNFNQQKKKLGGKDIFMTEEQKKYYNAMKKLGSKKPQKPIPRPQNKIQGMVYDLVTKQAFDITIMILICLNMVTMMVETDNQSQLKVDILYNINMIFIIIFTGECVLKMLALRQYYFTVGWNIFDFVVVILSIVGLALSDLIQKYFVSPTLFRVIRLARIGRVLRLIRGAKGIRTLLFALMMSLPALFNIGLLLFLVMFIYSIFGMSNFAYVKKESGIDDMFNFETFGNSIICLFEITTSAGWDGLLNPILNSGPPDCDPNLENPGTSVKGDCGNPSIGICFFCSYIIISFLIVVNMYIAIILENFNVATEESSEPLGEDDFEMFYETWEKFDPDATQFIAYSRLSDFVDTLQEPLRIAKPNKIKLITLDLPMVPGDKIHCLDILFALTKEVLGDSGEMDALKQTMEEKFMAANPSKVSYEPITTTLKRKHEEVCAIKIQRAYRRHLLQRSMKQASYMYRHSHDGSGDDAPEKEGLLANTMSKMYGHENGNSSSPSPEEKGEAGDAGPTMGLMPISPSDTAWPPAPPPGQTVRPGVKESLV

As a reminder, the Papp A→B is how fast a substance crosses the layer from the apical side. As a reminder, the Papp B→A is how fast a substance crosses the layer from the basolateral side. Usually efflux ratio stands for a quotient of directional permeabilities that is used to spot active efflux. The term IC50 denotes the midpoint of a concentration-inhibition curve. As to `Cc1cccc(C)c1NC(=O)CC(C)NCc1ccc2ccccc2c1` (stereo not drawn) [13 b, N‐(2,6‐Dimethylphenyl)‐3‐[(naphthalen‐2‐ylmethyl)amino]butanamide], in data set [1], the Papp A→B at 120 min, 100 µM amounted to 43.8 ×10⁻⁶ cm/s and the Papp B→A at 120 min, 100 µM came to 216 ×10⁻⁶ cm/s. Further, the efflux ratio at 120 min, 100 µM with P-gp turned out to be 4.9. Also, the “nH (slope factor), tonic block” value at hNav1.4 [2] (0.1 Hz stimulation) was found to be 1.1±0.1. In addition, the IC50 on hNav1.4 [2] (setting [7]) was 147 ± 12 µM. On hNav1.4 [2] (10 Hz stimulation), the “nH (slope factor), phasic block” value stood at 0.8±0.1. Besides, the IC50 on hNav1.4 [2] (setting [8]) was found to be 14 ± 1.8 µM. The “TB/PB (ratio IC50 tonic block/IC50 phasic block)” value on hNav1.4 [2] is recorded as 10.5.

As usually defined, the melting point is the temperature of the solid-liquid transition. The compound `Cc1cccc(C)c1NC(=O)CC(C)NCc1ccc2ccccc2c1` (stereo not drawn) (as salt: hydrochloride) [13 b, N‐(2,6‐Dimethylphenyl)‐3‐[(naphthalen‐2‐ylmethyl)amino]butanamide] had a melting point of 199 to 201 °C.

Turning to `Cc1cccc(C)c1NC(=O)C(C)N` (stereo not drawn) [tocainide], in data set [1], the Papp A→B at 120 min, 100 µM was found to be 49.6 ×10⁻⁶ cm/s and the Papp B→A at 120 min, 100 µM was found to be 196 ×10⁻⁶ cm/s. In the data set with P-gp, the efflux ratio at 120 min, 100 µM was determined as 3.9. On hNav1.4 [3] (0.1 Hz stimulation), the “nH (slope factor), tonic block” value is reported as 1.0±0.1. Further, the IC50 on hNav1.4 [3] (setting [7]) was 700 ± 70 µM. Also, the “nH (slope factor), phasic block” value on hNav1.4 [3] (10 Hz stimulation) is 1.1±0.2. The IC50 on hNav1.4 [3] (setting [8]) is 182 ± 24 µM. Moreover, on hNav1.4 [3] (use-dependence), the “TB/PB (ratio IC50 tonic block/IC50 phasic block)” value is reported as 3.8.

In the case of `Cc1cccc(C)c1OCC(C)N` (stereo not drawn) [mexiletine], at hNav1.4 [3] (0.1 Hz stimulation), the “nH (slope factor), tonic block” value is recorded as 1.2±0.1. The IC50 at hNav1.4 [3] (setting [7]) was 256 ± 25 µM; on hNav1.4 [3] (setting [8]), 46 ± 5 µM. On hNav1.4 [3] (10 Hz stimulation), the “nH (slope factor), phasic block” value is on record as 0.9±0.1.

As to `Cc1cccc(C)c1NC(=O)CC(C)NCc1cccc2ccccc12` (stereo not drawn) [13 a, N‐(2,6‐Dimethylphenyl)‐3‐[(naphthalen‐1‐ylmethyl)amino]butanamide], in data set [1], the Papp A→B at 120 min, 100 µM stood at 56.6 ×10⁻⁶ cm/s and the Papp B→A at 120 min, 100 µM was found to be 223 ×10⁻⁶ cm/s. The “nH (slope factor), tonic block” value at hNav1.4 [3] (0.1 Hz stimulation) is given as 1.3±0.1. Further, the “nH (slope factor), phasic block” value at hNav1.4 [3] (10 Hz stimulation) was 0.8±0.1.

In the case of `Cc1cccc(C)c1OCCC(C)NCc1cccc2ccccc12` (stereo not drawn) [17 a, N‐[(Naphthalen‐1‐yl)methyl]‐4‐[(2,6‐dimethyl)phenoxy]butan‐2‐amine], in the data set on HeLa cells [4], the “mitochondrial ROS levels (DHR)” value is listed as “lower ROS levels”. The “percentage of mitochondrial ROS producing cells (DHR)” value with HeLa cells [4] was “lower percentage of ROS producing cells”. In data set [1], the Papp A→B at 120 min, 100 µM is 25.9 ×10⁻⁶ cm/s. Moreover, in data set [1], the Papp B→A at 120 min, 100 µM is 180 ×10⁻⁶ cm/s. Further, in the data set on P-gp, the efflux ratio at 120 min, 100 µM was 7.1. The “cellular viability (7-AAD positive cells untreated related)” value with HeLa cells [5] is listed as “not affected”. For the same compound, the “percentage of ROS producing cells related to untreated cells (% DCF (+) cells)” value in the data set on HeLa cells [6] (1 μM, 6 h exposure) was “no significant effects”; in the data set on HeLa cells [6] (50 μM, 6 h exposure) it was “significant cytoprotective effect”; in the data set on HeLa cells [6] (24 h exposure, regardless of concentrations (1 and 50 μM)), “prominent cytoprotective effect”. In the data set with HeLa cells [6] (50 μM, 24 h exposure), the “ROS production related to untreated cells (DCF fluorescence median)” value is listed as roughly 3 fold. In addition, the “nH (slope factor), tonic block” value on hNav1.4 [2] (0.1 Hz stimulation) stood at 1.2±0.2. Further, the IC50 was determined as 1080 ± 150 µM on hNav1.4 [2] (setting [7]) and 57 ± 8 µM on hNav1.4 [2] (setting [8]). For the same compound, the “nH (slope factor), phasic block” value on hNav1.4 [2] (10 Hz stimulation) is given as 0.8±0.1. In addition, the “fold higher IC50 value at 10 Hz than To042” value at hNav1.4 [2] (10 Hz, relative to To042) amounted to 6 fold. In addition, at hNav1.4 [2], the “TB/PB (ratio IC50 tonic block/IC50 phasic block)” value is 18.9.

For `Cc1cccc(C)c1OCCC(C)NCc1ccc2ccccc2c1` (stereo not drawn) [17 b, N‐[(Naphthalen‐2‐yl)methyl]‐4‐[(2,6‐dimethyl)phenoxy]butan‐2‐amine], the Papp A→B at 120 min, 100 µM in data set [1] stood at 49.6 ×10⁻⁶ cm/s. In addition, the basolateral-to-apical permeability (Papp B→A) at 120 min, 100 µM in data set [1] turned out to be 199 ×10⁻⁶ cm/s. The efflux ratio at 120 min, 100 µM in the data set on P-gp worked out at 4. Also, the “nH (slope factor), tonic block” value at hNav1.4 [2] (0.1 Hz stimulation) is reported as 0.9±0.1. Moreover, the values for the IC50 on hNav1.4 [2] (setting [7]) and on hNav1.4 [2] (setting [8]) were 88 ± 11 µM and 8.8 ± 0.6 µM, respectively. Further, the “nH (slope factor), phasic block” value at hNav1.4 [2] (10 Hz stimulation) is reported as 1.1±0.1. Also, the “TB/PB (ratio IC50 tonic block/IC50 phasic block)” value on hNav1.4 [2] turned out to be 10.

With `Cc1cccc(C)c1OCCC(C)NCc1cccc2ccccc12` (stereo not drawn) (as salt: hydrochloride) [17 a, N‐[(Naphthalen‐1‐yl)methyl]‐4‐[(2,6‐dimethyl)phenoxy]butan‐2‐amine], the melting point is 183 to 184 °C.

`Cc1cccc(C)c1OCCC(C)NCc1ccc2ccccc2c1` (stereo not drawn) (as salt: hydrochloride) [17 b, N‐[(Naphthalen‐2‐yl)methyl]‐4‐[(2,6‐dimethyl)phenoxy]butan‐2‐amine] came in with a melting point of 178 to 179 °C.
